Data taken from PMC10636063, “Progesterone activation of β1-containing BK channels involves two binding sites” (Nature Communications, 2023).
Several values for one entry are separate records, joined by “and”; a condition that tells them apart may be missing. Identical values can stand only once.

Tests used:
Set-up in all cases: species or system mouse
[1] = test system: de-endothelialized MCA segments of KCNMB1-/- mice permeabilized with β1 constructs; experiment: Cerebral artery diameter in vitro, KCNMB1-/- MCA permeabilized with β1 constructs; conditions: Y32V and W163I substitutions; 50 mM EtOH
Excerpt: Eight-12 week-old C57BL/6J and KCNMB1^−/− on C57BL/6 background mice of both sexes were deeply anesthetized with isoflurane via inhalation in a tightly sealed jar. […] For de-endothelialized records, the endothelium was removed by passing an air bubble into the vessel lumen for 90 s[30]. This method has been consistently used by our group and validated using endothelium-dependent versus endothelium-independent vasodilators[16],[26]. Arteries were cannulated as previously described by our group[26],[40]. […] PSS was continuously bubbled with an O2/CO2/N2 (21/5/74%) gas mixture and maintained at 35–37 °C. The artery external wall diameter was measured using the automatic edge-detection function of lonWizard software (lonOptix) via Sanyo VCB-3512T camera (Sanyo Electric Co.). Arteries were first incubated at an intravascular pressure of 10 mm Hg for 10 min. Then intravascular pressure was increased to 60 mmHg and held steady throughout the experiment to induce myogenic tone development and maintenance[19],[30],[51]. […] To determine arterial viability, arterial contractility was probed with a high KCl solution at the end of each experiment. […] Like PSS, the high-KCl solution was continuously bubbled with O2/CO2/N2 (21/5/74%) gas mixture and maintained at 35–37 °C. […]

[2] = test system: de-endothelialized, pressurized MCA segments (C57BL/6 male); experiment: EtOH-induced constriction of pressurized MCA in vitro; conditions: for change in artery diameter (EtOH-induced constriction): Fig 8B, individual replicates
Excerpt: Eight-12 week-old C57BL/6J and KCNMB1^−/− on C57BL/6 background mice of both sexes were deeply anesthetized with isoflurane via inhalation in a tightly sealed jar. Resistance size MCAs (~100 μm in external diameter) were dissected out of the mouse brains after animal euthanasia with sharp scissors. For de-endothelialized records, the endothelium was removed by passing an air bubble into the vessel lumen for 90 s[30]. This method has been consistently used by our group and validated using endothelium-dependent versus endothelium-independent vasodilators[16],[26]. Arteries were cannulated as previously described by our group[26],[40]. MCAs were cut into 5 to 10 mm-long segments under a microscope (Nikon SMZ645). The segment was cannulated at each end, and the artery exterior was continuously perfused with physiologic sodium saline (PSS) of the following composition (mM): 119 NaCl, 4.7 KCl, 1.2 KH2PO4, 1.6 CaCl2, 1.2 MgSO4, 0.023 EDTA, 11 glucose, 24 NaHCO3, pH=7.4. PSS was continuously bubbled with an O2/CO2/N2 (21/5/74%) gas mixture and maintained at 35–37 °C. The artery external wall diameter was measured using the automatic edge-detection function of lonWizard software (lonOptix) via Sanyo VCB-3512T camera (Sanyo Electric Co.). Arteries were first incubated at an intravascular pressure of 10 mm Hg for 10 min. Then intravascular pressure was increased to 60 mmHg and held steady throughout the experiment to induce myogenic tone development and maintenance[19],[30],[51]. Each artery segment was exposed to PROG, PROG-oxime (in presence and absence of 1 µM paxilline) only once to avoid development of desensitization during repeated applications of PROG-containing solution. To determine arterial viability, arterial contractility was probed with a high KCl solution at the end of each experiment. The high KCl solution was composed of the following composition (mM): 63.7 NaCl, 60 KCl, 1.2 KH2PO4, 1.2 MgSO4, 0.023 EDTA, 11 glucose, 24 NaHCO3, 1.6 CaCl2, pH=7.4. Like PSS, the high-KCl solution was continuously bubbled with O2/CO2/N2 (21/5/74%) gas mixture and maintained at 35–37 °C.

MCA branches (C57BL/6J) = experiment: EtOH-induced cerebrovascular constriction in vivo (cranial window); conditions: individual replicates; for artery diameter, normalized to time 0: Fig 8E
Protocol: Eight-12 week-old male and female C57BL/6J mice were anesthetized with a mixture of xylazine/ketamine (12/100 mg per kg) and kept anesthetized for the duration of the experiment with subsequent ketamine doses (50 mg/kg of weight) as needed. A catheter was inserted into the carotid artery so that the infusion went straight to the brain rather than towards the thoracic cavity. An area of the skull was cleared of tissue and thinned to expose the branching arteries originating from the MCA on the side the catheter was inserted, above the zygomatic arch, between the ear and eye of the skull[19],[34]. The exposed arteries branching out from the MCA were monitored using a Leica MC170 HD microscope with a mounted camera (Leica M125 C) connected to a computer monitor. Drugs were diluted to their final concentration in sodium saline (0.9% NaCl) and administered via catheter at 0.1 ml/25 g of weight. Cranial window images before and after drug administration were acquired every 60 seconds for subsequent analysis.

CCO [EtOH, ethanol]
constriction of MCA [1]: constriction was still observed | EtOH concentration close to EC100 for MCA constriction [2]: ~50 mM | change in artery diameter (EtOH-induced constriction) ([2]; EtOH 10mM): -3.481 and -2.957 and -4.155 and -5.135 and -0.8602 | change in artery diameter (EtOH-induced constriction) ([2]; EtOH 35mM): -3.0303 and -4.876 and -3.6836 and -8.271 and -6.594 | change in artery diameter (EtOH-induced constriction) ([2]; EtOH 50mM): -6.879 and -7.897 and -7.7 and -14.4262 and -10.9422 | change in artery diameter (EtOH-induced constriction) ([2]; EtOH 75mM): -7.692 and -11.3856 and -9.864 and -10.7879 and -9.705 | artery diameter, normalized to time 0 (MCA branches (C57BL/6J); time 0): 1 (5×) and 0.9973 | artery diameter, normalized to time 0 (MCA branches (C57BL/6J); time 1): 1 (2×) and 0.9893 and 0.9693 and 1.069 and 0.888 | artery diameter, normalized to time 0 (MCA branches (C57BL/6J); time 2): 0.8687 and 0.8304 and 0.7155 and 0.777 and 1.057 and 0.6934 | artery diameter, normalized to time 0 (MCA branches (C57BL/6J); time 3): 0.7831 and 1 and 0.7857 and 0.8444 and 1.014 and 0.8086 | artery diameter, normalized to time 0 (MCA branches (C57BL/6J); time 4): 0.7004 and 0.7657 and 0.7155 and 0.7188 and 0.9449 and 0.6934 | artery diameter, normalized to time 0 (MCA branches (C57BL/6J); time 5): 0.6515 and 0.8304 and 0.7857 and 0.7691 and 0.9335 and 0.8086 | artery diameter, normalized to time 0 (MCA branches (C57BL/6J); time 6): 0.7831 and 1 and 0.8849 and 0.8691 and 0.8118 and 0.8086 | artery diameter, normalized to time 0 (MCA branches (C57BL/6J); time 7): 0.7397 and 0.7657 and 0.8849 and 0.7997 and 0.85 and 0.8086 | artery diameter, normalized to time 0 (MCA branches (C57BL/6J); time 8): 0.7004 and 1 and 0.9584 and 0.8381 and 0.823 and 0.6934 | artery diameter, normalized to time 0 (MCA branches (C57BL/6J); time 9): 0.6515 and 0.9469 and 0.8849 and 0.7942 and 0.8049 and 0.6934 | artery diameter, normalized to time 0 (MCA branches (C57BL/6J); time 10): 0.6515 and 1 and 0.8849 and 0.8075 and 0.8892 and 0.6934 | artery diameter, normalized to time 0 (MCA branches (C57BL/6J); time 11): 0.7831 and 1 and 0.8231 and 0.8249 and 0.8605 and 0.6934 | artery diameter, normalized to time 0 (MCA branches (C57BL/6J); time 12): 0.7004 and 0.9469 and 0.9893 and 0.8811 and 0.8191 and 0.888 | artery diameter, normalized to time 0 (MCA branches (C57BL/6J); time 13): 0.6515 and 0.8304 and 0.8849 and 0.7651 and 0.797 and 0.6934 | artery diameter, normalized (group comparison) (MCA branches (C57BL/6J); Fig 8F): 0.6886 and 0.733 and 0.6331 and 0.6127 and 0.7046 and 0.7541
